In one experiment the target is FGFR4 (Homo sapiens (Human), UniProt P22455). The experiment can be described thus: FGFR Enzymatic Assay (FRET peptide phosphorylation), FGFR4. The experiment is classed as biochemical. How it is done: (§1) The inhibitor potency of the exemplified compounds was measured in an enzyme assay that measures peptide phosphorylation using FRET measurements to detect product formation. Inhibitors were serially diluted in DMSO and a volume of 0.5 μL was transferred to the wells of a 384-well plate.
Sequence of FGFR4 (P22455 22-802): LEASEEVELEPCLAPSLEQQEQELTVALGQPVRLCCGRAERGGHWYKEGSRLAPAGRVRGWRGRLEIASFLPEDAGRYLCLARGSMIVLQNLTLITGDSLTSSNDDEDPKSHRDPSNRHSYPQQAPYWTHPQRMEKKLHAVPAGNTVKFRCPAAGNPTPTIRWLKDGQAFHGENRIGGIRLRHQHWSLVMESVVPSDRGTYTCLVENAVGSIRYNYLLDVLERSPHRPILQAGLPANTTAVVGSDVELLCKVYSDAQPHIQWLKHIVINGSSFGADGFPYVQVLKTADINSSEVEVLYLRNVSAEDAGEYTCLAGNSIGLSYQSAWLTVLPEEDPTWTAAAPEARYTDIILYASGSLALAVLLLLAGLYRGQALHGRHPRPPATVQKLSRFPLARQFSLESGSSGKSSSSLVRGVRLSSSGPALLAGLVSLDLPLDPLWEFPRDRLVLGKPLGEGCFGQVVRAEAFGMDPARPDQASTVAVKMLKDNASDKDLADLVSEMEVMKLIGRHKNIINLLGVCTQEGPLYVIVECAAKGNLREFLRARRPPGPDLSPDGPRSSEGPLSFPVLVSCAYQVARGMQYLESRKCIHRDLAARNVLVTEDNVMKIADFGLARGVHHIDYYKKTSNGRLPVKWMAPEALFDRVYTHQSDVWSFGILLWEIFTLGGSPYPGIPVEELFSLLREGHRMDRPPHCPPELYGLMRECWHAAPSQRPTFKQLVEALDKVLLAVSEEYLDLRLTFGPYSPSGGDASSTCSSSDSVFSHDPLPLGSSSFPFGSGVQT
The enzymes were purchased from Millipore or Invitrogen.
(§2) GraphPad prism3 was used to analyze the data.

The test system of a further experiment is FGFR3 enzyme. The experiment can be described thus: FGFR Enzymatic Assay (FRET peptide phosphorylation), FGFR3. The experiment is classed as biochemical. The conditions noted are these: IC50 ratio showing FGFR3 selectivity; Table 2A, pre-incubated for 4 hours. On the procedure: as §1, §2
The mark [1] stands for this setting: IC50 ratio showing FGFR4 selectivity, Table 2, pre-incubated for 4 hours.
Setting [2] is: ratio of IC50 data showing FGFR4 selectivity, Table 4, pre-incubated for 5 to 10 minutes.

A value given as a limit tells only on which side of the number the result lay.

This is an account of results in patent US11173162B2, “Bicyclic heterocycles as FGFR4 inhibitors” (Incyte Corporation, priority 2015, dated 2021).

Turning to `COc1cc(OC)c(F)c(N2Cc3cnc(-c4cc(N)ccc4C#N)cc3C3(CC3)C2=O)c1F` [Example 3, 4-amino-2-(2′-(2,6-difluoro-3,5-dimethoxyphenyl)-3′-oxo-2′,3′-dihydro-1′H-spiro[cyclopropane-1,4′-[2,7]naphthyridine]-6′-yl)benzonitrile], at FGFR4 (setting [1]), the FGFR1/FGFR4 is listed as >25, the FGFR2/FGFR4 is >25 and the FGFR3/FGFR4 is recorded as >10. In addition, on FGFR4 (setting [2]), the FGFR1/FGFR4 is on record as >25, the FGFR2/FGFR4 was >25 and the FGFR3/FGFR4 was >25.

Take `COc1cc(OC)c(F)c(N2Cc3cnc(-c4cncc(N)c4)cc3C3(CC3)C2=O)c1F` [Example 4, 6′-(5-aminopyridin-3-yl)-2′-(2,6-difluoro-3,5-dimethoxyphenyl)-1′H-spiro[cyclopropane-1,4′-[2,7]naphthyridin]-3′(2′H)-one]: the FGFR1/FGFR3 with FGFR3 enzyme was >1. In addition, on FGFR4 (setting [1]), the FGFR1/FGFR4 is given as >25, the FGFR2/FGFR4 is recorded as >10 and the FGFR3/FGFR4 is recorded as >10. Also, at FGFR4 (setting [2]), the FGFR1/FGFR4 was >10, the FGFR2/FGFR4 was >10 and the FGFR3/FGFR4 was >5.

For `COc1cc(OC)c(F)c(N2Cc3cnc(-c4cncc(F)c4)cc3C3(CC3)C2=O)c1F` [Example 5, 2′-(2,6-difluoro-3,5-dimethoxyphenyl)-6′-(5-fluoropyridin-3-yl)-1′H-spiro[cyclopropane-1,4′-[2,7]naphthyridin]-3′(2′H)-one], in the experiment with FGFR3 enzyme, the FGFR1/FGFR3 is reported as >3. On FGFR4 (setting [1]), the FGFR1/FGFR4 was >10, the FGFR2/FGFR4 is given as >5 and the FGFR3/FGFR4 is >1. Further, at FGFR4 (setting [2]), the FGFR1/FGFR4 is on record as >10, the FGFR2/FGFR4 is >5 and the FGFR3/FGFR4 is given as >4.

Turning to `COc1cc(OC)c(F)c(N2Cc3cnc(-c4cncc(N5CCOCC5)c4)cc3C3(CC3)C2=O)c1F` [Example 6, 2′-(2,6-difluoro-3,5-dimethoxyphenyl)-6′-(5-morpholinopyridin-3-yl)-1′H-spiro[cyclopropane-1,4′-[2,7]naphthyridin]-3′(2′H)-one], the FGFR1/FGFR3 in the experiment on FGFR3 enzyme was >3. Besides, at FGFR4 (setting [1]), the FGFR1/FGFR4 is reported as >100, the FGFR2/FGFR4 is reported as >100 and the FGFR3/FGFR4 is recorded as >25. At FGFR4 (setting [2]), the FGFR1/FGFR4 is listed as >100, the FGFR2/FGFR4 is given as >100 and the FGFR3/FGFR4 is given as >50.

As for `COc1cc(OC)c(F)c(N2Cc3cnc(-c4cc(N)cnc4C)cc3C3(CC3)C2=O)c1F` [Example 7, 6′-(5-amino-2-methylpyridin-3-yl)-2′-(2,6-difluoro-3,5-dimethoxyphenyl)-1′H-spiro[cyclopropane-1,4′-[2,7]naphthyridin]-3′(2′H)-one], in the experiment on FGFR3 enzyme, the FGFR1/FGFR3 was >1. On FGFR4 (setting [1]), the FGFR1/FGFR4 is given as >50, the FGFR2/FGFR4 is reported as >25 and the FGFR3/FGFR4 is >25. Besides, on FGFR4 (setting [2]), the FGFR1/FGFR4 is recorded as >25, the FGFR2/FGFR4 is given as >10 and the FGFR3/FGFR4 is recorded as >10.

Turning to `COc1cc(OC)c(F)c(N2Cc3cnc(-c4cncc(C#N)c4)cc3C3(CC3)C2=O)c1F` [Example 8, 5-(2′-(2,6-difluoro-3,5-dimethoxyphenyl)-3′-oxo-2′,3′-dihydro-1′H-spiro[cyclopropane-1,4′-[2,7]naphthyridine]-6′-yl)nicotinonitrile], the FGFR1/FGFR3 in the experiment with FGFR3 enzyme is >5. For the same compound, on FGFR4 (setting [1]), the FGFR1/FGFR4 is recorded as >50, the FGFR2/FGFR4 is on record as >10 and the FGFR3/FGFR4 is given as >10. Further, at FGFR4 (setting [2]), the FGFR1/FGFR4 is listed as >50, the FGFR2/FGFR4 is given as >10 and the FGFR3/FGFR4 is >10.

Turning to `COc1cc(OC)c(F)c(N2Cc3cnc(-c4cccnc4)cc3C3(CC3)C2=O)c1F` [Example 9, 2′-(2,6-difluoro-3,5-dimethoxyphenyl)-6′-(pyridin-3-yl)-1′H-spiro[cyclopropane-1,4′-[2,7]naphthyridin]-3′(2′H)-one], in the experiment on FGFR3 enzyme, the FGFR1/FGFR3 is recorded as >3. At FGFR4 (setting [1]), the FGFR1/FGFR4 is >10, the FGFR2/FGFR4 is >1 and the FGFR3/FGFR4 was >1. On FGFR4 (setting [2]), the FGFR1/FGFR4 is given as >5, the FGFR2/FGFR4 was >1 and the FGFR3/FGFR4 is listed as >1.

Regarding `COc1cncc(-c2cc3c(cn2)CN(c2c(F)c(OC)cc(OC)c2F)C(=O)C32CC2)c1` [Example 10, 2′-(2,6-difluoro-3,5-dimethoxyphenyl)-6′-(5-methoxypyridin-3-yl)-1′H-spiro[cyclopropane-1,4′-[2,7]naphthyridin]-3′(2′H)-one], the FGFR1/FGFR3 in the experiment with FGFR3 enzyme was >1. In addition, at FGFR4 (setting [1]), the FGFR1/FGFR4 is given as >25, the FGFR2/FGFR4 was >25 and the FGFR3/FGFR4 is reported as >10. Further, at FGFR4 (setting [2]), the FGFR1/FGFR4 is >25, the FGFR2/FGFR4 is recorded as >10 and the FGFR3/FGFR4 is recorded as >10.

`COc1cc(OC)c(F)c(N2Cc3cnc(-c4cncc(Cl)c4)cc3C3(CC3)C2=O)c1F` [Example 11, 6′-(5-chloropyridin-3-yl)-2′-(2,6-difluoro-3,5-dimethoxyphenyl)-1′H-spiro[cyclopropane-1,4′-[2,7]naphthyridin]-3′(2′H)-one]: the FGFR1/FGFR3 in the experiment on FGFR3 enzyme is >1. On FGFR4 (setting [1]), the FGFR1/FGFR4 is >25, the FGFR2/FGFR4 is >25 and the FGFR3/FGFR4 is >10. In addition, on FGFR4 (setting [2]), the FGFR1/FGFR4 is recorded as >50, the FGFR2/FGFR4 is recorded as >20 and the FGFR3/FGFR4 is >25.

Regarding `COc1cc(OC)c(F)c(N2Cc3cnc(-c4cncc(-n5ccnc5)c4)cc3C3(CC3)C2=O)c1F` [Example 12, 6′-(5-(1H-imidazol-1-yl)pyridin-3-yl)-2′-(2,6-difluoro-3,5-dimethoxyphenyl)-1′H-spiro[cyclopropane-1,4′-[2,7]naphthyridin]-3′(2′H)-one], the FGFR1/FGFR3 in the experiment with FGFR3 enzyme was >3. In addition, at FGFR4 (setting [1]), the FGFR1/FGFR4 is >50, the FGFR2/FGFR4 is given as >25 and the FGFR3/FGFR4 is on record as >10. In addition, on FGFR4 (setting [2]), the FGFR1/FGFR4 is >50, the FGFR2/FGFR4 is on record as >25 and the FGFR3/FGFR4 is on record as >20.

Regarding `COc1cc(OC)c(F)c(N2Cc3cnc(-c4cncc(C(=O)N5CCOCC5)c4)cc3C3(CC3)C2=O)c1F` [Example 13, 2′-(2,6-difluoro-3,5-dimethoxyphenyl)-6′-(5-(morpholine-4-carbonyl)pyridin-3-yl)-1′H-spiro[cyclopropane-1,4′-[2,7]naphthyridin]-3′(2′H)-one], the FGFR1/FGFR3 in the experiment on FGFR3 enzyme is listed as >3. Further, on FGFR4 (setting [1]), the FGFR1/FGFR4 is recorded as >50, the FGFR2/FGFR4 was >25 and the FGFR3/FGFR4 is listed as >10. Also, at FGFR4 (setting [2]), the FGFR1/FGFR4 is recorded as >50, the FGFR2/FGFR4 is listed as >20 and the FGFR3/FGFR4 is >10.

On to `COc1cc(OC)c(F)c(N2Cc3cnc(-c4cncc(S(=O)(=O)N5CCOCC5)c4)cc3C3(CC3)C2=O)c1F` [Example 14, 2′-(2,6-difluoro-3,5-dimethoxyphenyl)-6′-(5-(morpholinosulfonyl)pyridin-3-yl)-1′H-spiro[cyclopropane-1,4′-[2,7]naphthyridin]-3′(2′H)-one], for which, in the experiment with FGFR3 enzyme, the FGFR1/FGFR3 is given as >5. At FGFR4 (setting [1]), the FGFR1/FGFR4 is recorded as >50, the FGFR2/FGFR4 is >10 and the FGFR3/FGFR4 is >1. For the same compound, on FGFR4 (setting [2]), the FGFR1/FGFR4 is reported as >25, the FGFR2/FGFR4 is on record as >5 and the FGFR3/FGFR4 is given as >5.

For `COc1cc(OC)c(F)c(N2Cc3cnc(-c4cncc(NS(C)(=O)=O)c4)cc3C3(CC3)C2=O)c1F` [Example 15, N-(5-(2′-(2,6-difluoro-3,5-dimethoxyphenyl)-3′-oxo-2′,3′-dihydro-1′H-spiro[cyclopropane-1,4′-[2,7]naphthyridine]-6′-yl)pyridin-3-yl)methanesulfonamide], the FGFR1/FGFR3 with FGFR3 enzyme is listed as >3. For the same compound, at FGFR4 (setting [1]), the FGFR1/FGFR4 is >50, the FGFR2/FGFR4 was >25 and the FGFR3/FGFR4 is >10. For the same compound, at FGFR4 (setting [2]), the FGFR1/FGFR4 is recorded as >50, the FGFR2/FGFR4 was >25 and the FGFR3/FGFR4 was >10.

On to `COc1cc(OC)c(F)c(N2Cc3cnc(-c4[nH]ncc4C#N)cc3C3(CC3)C2=O)c1F` [Example 171, 5-(2′-(2,6-difluoro-3,5-dimethoxyphenyl)-3′-oxo-2′,3′-dihydro-1′H-spiro[cyclopropane-1,4′-[2,7]naphthyridine]-6′-yl)-1H-pyrazole-4-carbonitrile], for which, at FGFR4 (setting [1]), the FGFR1/FGFR4 was >10, the FGFR2/FGFR4 is reported as >10 and the FGFR3/FGFR4 is given as >10.

Take `COc1cc(OC)c(F)c(N2Cc3cnc(-c4nn(C)cc4C#N)cc3C3(CC3)C2=O)c1F` [Example 172, 3-(2′-(2,6-difluoro-3,5-dimethoxyphenyl)-3′-oxo-2′,3′-dihydro-1′H-spiro[cyclopropane-1,4′-[2,7]naphthyridine]-6′-yl)-1-methyl-1H-pyrazole-4-carbonitrile]: on FGFR4 (setting [1]), the FGFR1/FGFR4 is listed as >50, the FGFR2/FGFR4 is >25 and the FGFR3/FGFR4 is recorded as >10.

Turning to `COc1cc(OC)c(F)c(N2Cc3cnc(-c4nn(CC5CCOCC5)cc4C#N)cc3C3(CC3)C2=O)c1F` [Example 173, 3-(2′-(2,6-difluoro-3,5-dimethoxyphenyl)-3′-oxo-2′,3′-dihydro-1′H-spiro[cyclopropane-1,4′-[2,7]naphthyridine]-6′-yl)-1-((tetrahydro-2H-pyran-4-yl)methyl)-1H-pyrazole-4-carbonitrile], on FGFR4 (setting [1]), the FGFR1/FGFR4 is >100, the FGFR2/FGFR4 was >100 and the FGFR3/FGFR4 is recorded as >50.

For `COc1cc(OC)c(F)c(N2Cc3cnc(-c4nn(CC#N)cc4C#N)cc3C3(CC3)C2=O)c1F` [Example 174, 1-(cyanomethyl)-3-(2′-(2,6-difluoro-3,5-dimethoxyphenyl)-3′-oxo-2′,3′-dihydro-1′H-spiro[cyclopropane-1,4′-[2,7]naphthyridine]-6′-yl)-1H-pyrazole-4-carbonitrile], on FGFR4 (setting [1]), the FGFR1/FGFR4 is reported as >100, the FGFR2/FGFR4 is listed as >10 and the FGFR3/FGFR4 was >25.
